Assay results taken from patent publication US20160067232A1, “METHODS FOR TREATING A STROKE-RELATED SENSORIMOTOR IMPAIRMENT USING AMINOPYRIDINES” (Acorda Therapeutics, Inc., priority 2011, published 2016).
Values joined by “and” are separate entries in the source; they are usually repeats but may differ in a detail not shown here. Equal entries are not always repeated.

Assays:
[1] = system: rats with middle cerebral artery occlusion (MCAO); assay: Forelimb placing test, MCAO rats, dose escalation study (Example 17); type: in vivo, Sprague Dawley rat; details: for Forelimb placing compared to vehicle: p<0.001
Text: The limb placing tests were divided into forelimb and hindlimb tests. For the forelimb-placing test, the examiner held the rat close to a tabletop and scored the rat's ability to place the forelimb on the tabletop in response to whisker, visual, tactile, or proprioceptive stimulation. Similarly, for the hindlimb placing test, the examiner assessed the rat's ability to place the hindlimb on the tabletop in response to tactile and proprioceptive stimulation. Together, these tests reflect function and recovery in the sensorimotor systems (De Ryck et al., Brain Res 1992; 573:44-60). Separate sub-scores were obtained for each mode of sensory input and added to give total scores (for the forelimb placing test: 0=normal, 12=maximally impaired; for the hindlimb placing test: 0=normal; 6=maximally impaired). Scores were given in half-point increments (see below). Typically, there is a slow and steady recovery of limb placing behavior during the first month after stroke.
Forelimb placing test (0-12): • whisker placing (0-2); • visual placing (forward (0-2), sideways (0-2)) • tactile placing (dorsal (0-2), lateral (0-2)) • proprioceptive placing (0-2).
For each subtest, animals are scored as followed: • 0.0=immediate response • 0.5=response within 2 seconds • 1.0=response of 2-3 seconds • 1.5=response of >3 seconds • 2.0=no response
4-AP was evaluated for its ability to promote functional sensorimotor improvement following ischemic stroke in rats with stable motor deficits at times remote from their ischemic events. The animal model of ischemic stroke, i.e., the MCAO model, used in this example is the same as the animal model described in Example 2.
In the MCAO model recovery begins to plateau by 4 weeks after MCAO, at which time there are still measurable deficits in sensorimotor function. However, 4 weeks after MCAO there may still be slow continued endogenous recovery.
4-aminopyridine was dissolved in water for injection (WFI, Cellgro) and sterile filtered. […]

[2] = system: rats with middle cerebral artery occlusion (MCAO); assay: Body swing test, MCAO rats, dose escalation study (Example 17); type: in vivo, Sprague Dawley rat; details: groups diverged prior to treatment initiation (FIG. 13)
Experimental: Body Swing: Evaluated at Day −1 (pre-operation), Day 1, Day 7, Day 14, Day 21, Day 28, Day 30, Day 32, Day 42, Day 44, Day 46, Day 56, Day 58, Day 60. Body swing was evaluated by counting head movements to one side or the other when suspended by tail. For this test, the rat was held approximately one (1) inch from the base of its tail. It was then elevated to an inch above a surface of a table. The rat was held in the vertical axis, defined as no more than 10° to either the left or the right side. A swing was recorded whenever the rat moved its head out of the vertical axis to either side. Before attempting another swing, the rat had to return to the vertical position for the next swing to be counted. Thirty (30) total swings were counted. […] Body swing scores were expressed as a percentage of rightward over total swings. […]
4-AP was evaluated for its ability to promote functional sensorimotor improvement following ischemic stroke in rats with stable motor deficits at times remote from their ischemic events. […]
Body Swing: Evaluated at Day −1 (pre-operation), Day 1, Day 7, Day 14, Day 21, Day 28, Day 35, Day 42, Day 49, Day 56, Day 59, Day 62, Day 65, Day 70. […]
Statistical Methods: Changes from pre-treatment baseline values (Day 56) were calculated for each behavioral score at each time point assessed after dosing. […]

[3] = Body weight (g) of MCAO rats (Example 2); details: individual animals and Mean (N=15), listed as 4-AP

Compound: Nc1ccncc1 [4-aminopyridine]
- Forelimb placing compared to vehicle ([1]; 0.5 mg/kg b.i.d. p.o., Day 59, treatment started Day 56 after MCAO): significantly improved in forelimb placing
- Forelimb placing compared to vehicle ([1]; 1 mg/kg b.i.d. p.o., Day 62): measureable improvement
- Forelimb function compared to vehicle ([1]; 2 mg/kg b.i.d. p.o., Day 65, p<0.0001): significant improvements
- Body swing performance [2]: no conclusions can be drawn
- Weight (g) Group 1, D30 ([3]; Group 1, D30, treatment phase 1 (high-dose 4-AP)): 425 g (2×) and 450 g and 435 g and 490 g and 544 g and 470 g and 512 g and 434 g and 482 g and 480 g and 360 g and 422 g and 496 g and 372 g
- Weight (g) Group 1, D32 ([3]; Group 1, D32, treatment phase 1 (high-dose 4-AP)): 411 g and 441 g and 417 g and 470 g and 515 g and 454 g and 496 g and 422 g and 453 g and 461 g and 351 g and 404 g and 412 g and 477 g and 360 g
- Weight (g) Group 1, D44 ([3]; Group 1, D44, treatment phase 2 (low-dose 4-AP)): 455 g and 501 g and 447 g and 511 g and 566 g and 480 g and 545 g and 454 g and 502 g (2×) and 400 g and 440 g and 456 g and 494 g and 390 g
- Weight (g) Group 1, D46 ([3]; Group 1, D46, treatment phase 2 (low-dose 4-AP)): 448 g and 490 g (2×) and 440 g and 494 g (2×) and 570 g and 488 g and 552 g and 457 g and 491 g and 386 g and 442 g and 446 g and 379 g
- Weight (g) Group 2, D30 ([3]; Group 2, D30, treatment phase 1 (low-dose 4-AP)): 474 g and 380 g (2×) and 414 g and 444 g and 410 g and 480 g (2×) and 540 g and 475 g and 512 g and 434 g and 420 g and 416 g and 431 g
- Weight (g) Group 2, D32 ([3]; Group 2, D32, treatment phase 1 (low-dose 4-AP)): 473 g and 369 g and 410 g and 426 g and 406 g and 455 g and 541 g and 467 g and 508 g and 476 g and 424 g and 403 g and 412 g and 374 g and 428 g
- Weight (g) Group 2, D58 ([3]; Group 2, D58, treatment phase 3 (high-dose 4-AP)): 530 g and 425 g and 461 g and 477 g and 455 g and 540 g and 635 g and 535 g and 570 g and 546 g and 499 g and 456 g and 470 g and 432 g and 483 g
- Weight (g) Group 2, D60 ([3]; Group 2, D60, treatment phase 3 (high-dose 4-AP)): 517 g and 410 g and 444 g (2×) and 460 g and 441 g and 519 g and 614 g and 508 g and 535 g and 530 g and 488 g and 447 g and 417 g and 471 g
- Weight (g) Group 3, D44 ([3]; Group 3, D44, treatment phase 2 (high-dose 4-AP)): 460 g and 461 g and 469 g and 451 g and 423 g and 462 g and 463 g (2×) and 532 g and 572 g and 538 g and 442 g and 445 g (2×) and 453 g
- Weight (g) Group 3, D46 ([3]; Group 3, D46, treatment phase 2 (high-dose 4-AP)): 440 g and 436 g (2×) and 455 g and 435 g (2×) and 402 g and 442 g and 502 g and 567 g and 497 g and 446 g and 430 g (2×) and 412 g
- Weight (g) Group 3, D58 ([3]; Group 3, D58, treatment phase 3 (low-dose 4-AP)): 475 g and 486 g and 485 g and 467 g and 440 g and 472 g and 490 g and 550 g and 625 g and 573 g and 492 g and 462 g and 469 g and 476 g and 461 g
- Weight (g) Group 3, D60 ([3]; Group 3, D60, treatment phase 3 (low-dose 4-AP)): 466 g and 479 g and 484 g (2×) and 463 g and 430 g and 465 g and 550 g and 613 g and 549 g and 468 g and 453 g and 456 g and 470 g and 447 g
